Measured values taken from PubChem BioAssay (NCI).
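Five concentrations, 48 hours, 96-well plates. TGI: concentration producing complete growth inhibition.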

Key:
Assay in all cases: NCI-60 cell line screen, 48 h
OVCAR-4 ovarian = test system: OVCAR-4 ovarian
M14 melanoma = test system: M14 melanoma
SNB-19 CNS = test system: SNB-19 CNS
CCRF-CEM leukemia = test system: CCRF-CEM leukemia
UACC-62 melanoma = test system: UACC-62 melanoma
CAKI-1 renal = test system: CAKI-1 renal
HOP-18 NSCLC = test system: HOP-18 NSCLC
NCI-H522 lung = test system: NCI-H522 lung
LXFL 529 NSCLC = test system: LXFL 529 NSCLC
IGROV1 ovarian = test system: IGROV1 ovarian
DMS 273 small cell lung = test system: DMS 273 small cell lung
ACHN renal = test system: ACHN renal
MOLT-4 leukemia = test system: MOLT-4 leukemia
SK-MEL-2 melanoma = test system: SK-MEL-2 melanoma
SF-295 CNS = test system: SF-295 CNS
UO-31 renal = test system: UO-31 renal
HL-60(TB) leukemia = test system: HL-60(TB) leukemia
SR leukemia = test system: SR leukemia
RXF-631 renal = test system: RXF-631 renal
A498 renal = test system: A498 renal
HOP-62 NSCLC = test system: HOP-62 NSCLC
DLD-1 colon = test system: DLD-1 colon
HCC-2998 colon = test system: HCC-2998 colon
SNB-78 CNS = test system: SNB-78 CNS
SK-OV-3 ovarian = test system: SK-OV-3 ovarian
SNB-75 CNS = test system: SNB-75 CNS
RPMI-8226 leukemia = test system: RPMI-8226 leukemia
HCT-116 colon = test system: HCT-116 colon
SF-539 CNS = test system: SF-539 CNS
LOX IMVI melanoma = test system: LOX IMVI melanoma
U251 CNS = test system: U251 CNS
K-562 leukemia = test system: K-562 leukemia
HCT-15 colon = test system: HCT-15 colon
SN12C renal = test system: SN12C renal
786-0 renal = test system: 786-0 renal
KM12 colon = test system: KM12 colon
SW-620 colon = test system: SW-620 colon
HT29 colon = test system: HT29 colon
M19-MEL melanoma = test system: M19-MEL melanoma
A549 NSCLC = test system: A549 NSCLC
MALME-3M melanoma = test system: MALME-3M melanoma
SK-MEL-5 melanoma = test system: SK-MEL-5 melanoma
SK-MEL-28 melanoma = test system: SK-MEL-28 melanoma
OVCAR-8 ovarian = test system: OVCAR-8 ovarian
NCI-H460 lung = test system: NCI-H460 lung
EKVX NSCLC = test system: EKVX NSCLC
NCI-H23 lung = test system: NCI-H23 lung
RXF 393 renal = test system: RXF 393 renal
TK-10 renal = test system: TK-10 renal
SF-268 CNS = test system: SF-268 CNS
XF 498 CNS = test system: XF 498 CNS
KM20L2 colon = test system: KM20L2 colon
DMS 114 small cell lung = test system: DMS 114 small cell lung
UACC-257 melanoma = test system: UACC-257 melanoma
OVCAR-5 ovarian = test system: OVCAR-5 ovarian
OVCAR-3 ovarian = test system: OVCAR-3 ovarian
COLO 205 colon = test system: COLO 205 colon
NCI-H226 lung = test system: NCI-H226 lung
HOP-92 NSCLC = test system: HOP-92 NSCLC

Compound: CN(C)c1ccc(Cc2cc(C(C)(C)C)cc(C(C)(C)C)c2O)cc1
- TGI (OVCAR-4 ovarian): 82.7 µM
- TGI (M14 melanoma): 41.7 µM
- TGI (SNB-19 CNS): 47.1 µM
- TGI (CCRF-CEM leukemia): > 100 µM
- TGI (UACC-62 melanoma): 30.2 µM
- TGI (CAKI-1 renal): 39.6 µM
- TGI (HOP-18 NSCLC): 80.5 µM
- TGI (NCI-H522 lung): 37 µM
- TGI (LXFL 529 NSCLC): 39.4 µM
- TGI (IGROV1 ovarian): 47.8 µM
- TGI (DMS 273 small cell lung): 34 µM
- TGI (ACHN renal): 33.2 µM
- TGI (MOLT-4 leukemia): 31.5 µM
- TGI (SK-MEL-2 melanoma): 20.1 µM
- TGI (SF-295 CNS): 35.6 µM
- TGI (UO-31 renal): 32.7 µM
- TGI (HL-60(TB) leukemia): > 100 µM
- TGI (SR leukemia): 33.8 µM
- TGI (RXF-631 renal): 36.3 µM
- TGI (A498 renal): 34 µM
- TGI (HOP-62 NSCLC): 37.2 µM
- TGI (DLD-1 colon): > 100 µM
- TGI (HCC-2998 colon): 35.5 µM
- TGI (SNB-78 CNS): 37.4 µM
- TGI (SK-OV-3 ovarian): 74.5 µM
- TGI (SNB-75 CNS): 79.6 µM
- TGI (RPMI-8226 leukemia): 27.8 µM
- TGI (HCT-116 colon): 26 µM
- TGI (SF-539 CNS): 43.1 µM
- TGI (LOX IMVI melanoma): 22.3 µM
- TGI (U251 CNS): 30.1 µM
- TGI (K-562 leukemia): 26.2 µM
- TGI (HCT-15 colon): 34.3 µM
- TGI (SN12C renal): 30.2 µM
- TGI (786-0 renal): 33.8 µM
- TGI (KM12 colon): 24.6 µM
- TGI (SW-620 colon): 30.6 µM
- TGI (HT29 colon): 31.1 µM
- TGI (M19-MEL melanoma): 49.4 µM
- TGI (A549 NSCLC): 73.6 µM
- TGI (MALME-3M melanoma): 53 µM
- TGI (SK-MEL-5 melanoma): 29.5 µM
- TGI (SK-MEL-28 melanoma): 42.6 µM
- TGI (OVCAR-8 ovarian): 42 µM
- TGI (NCI-H460 lung): 37.5 µM
- TGI (EKVX NSCLC): 46.4 µM
- TGI (NCI-H23 lung): 33.3 µM
- TGI (RXF 393 renal): 30.8 µM
- TGI (TK-10 renal): 27.1 µM
- TGI (SF-268 CNS): 35.6 µM
- TGI (XF 498 CNS): 36.5 µM
- TGI (KM20L2 colon): 40.4 µM
- TGI (DMS 114 small cell lung): 28.6 µM
- TGI (UACC-257 melanoma): 34.9 µM
- TGI (OVCAR-5 ovarian): 18.5 µM

Compound: CCOC(OC1=CCCC1)C(C)[Se]c1ccccc1 (configuration not stated)
- TGI (OVCAR-4 ovarian): > 100 µM
- TGI (M14 melanoma): > 100 µM
- TGI (SNB-19 CNS): > 100 µM
- TGI (CCRF-CEM leukemia): 46.6 µM
- TGI (UACC-62 melanoma): > 100 µM
- TGI (CAKI-1 renal): > 100 µM
- TGI (HOP-18 NSCLC): > 100 µM
- TGI (NCI-H522 lung): 35.9 µM
- TGI (LXFL 529 NSCLC): > 100 µM
- TGI (IGROV1 ovarian): > 100 µM
- TGI (DMS 273 small cell lung): 31.3 µM
- TGI (ACHN renal): > 100 µM
- TGI (MOLT-4 leukemia): 64.6 µM
- TGI (SK-MEL-2 melanoma): > 100 µM
- TGI (SF-295 CNS): > 100 µM
- TGI (UO-31 renal): > 100 µM
- TGI (HL-60(TB) leukemia): 42.9 µM
- TGI (SR leukemia): 41.2 µM
- TGI (RXF-631 renal): 41.4 µM
- TGI (A498 renal): > 100 µM
- TGI (HOP-62 NSCLC): > 100 µM
- TGI (DLD-1 colon): 48.4 µM
- TGI (OVCAR-3 ovarian): > 100 µM
- TGI (HCC-2998 colon): > 100 µM
- TGI (SNB-78 CNS): > 100 µM
- TGI (SK-OV-3 ovarian): > 100 µM
- TGI (SNB-75 CNS): 90.4 µM
- TGI (RPMI-8226 leukemia): 43.7 µM
- TGI (HCT-116 colon): 45.1 µM
- TGI (SF-539 CNS): 71.7 µM
- TGI (LOX IMVI melanoma): 28.9 µM
- TGI (U251 CNS): 83 µM
- TGI (K-562 leukemia): > 100 µM
- TGI (HCT-15 colon): 32 µM
- TGI (SN12C renal): > 100 µM
- TGI (786-0 renal): 41.8 µM
- TGI (KM12 colon): > 100 µM
- TGI (COLO 205 colon): 39.9 µM
- TGI (HT29 colon): 44.4 µM
- TGI (NCI-H226 lung): > 100 µM
- TGI (M19-MEL melanoma): 66.3 µM
- TGI (A549 NSCLC): > 100 µM
- TGI (MALME-3M melanoma): 88.4 µM
- TGI (SK-MEL-5 melanoma): 52.4 µM
- TGI (SK-MEL-28 melanoma): > 100 µM
- TGI (OVCAR-8 ovarian): > 100 µM
- TGI (NCI-H460 lung): 40.1 µM
- TGI (EKVX NSCLC): > 100 µM
- TGI (NCI-H23 lung): 62.3 µM
- TGI (RXF 393 renal): 72.8 µM
- TGI (TK-10 renal): > 100 µM
- TGI (HOP-92 NSCLC): 81.4 µM
- TGI (SF-268 CNS): 59 µM
- TGI (XF 498 CNS): 45.1 µM
- TGI (KM20L2 colon): 79.6 µM
- TGI (DMS 114 small cell lung): 20.4 µM
- TGI (UACC-257 melanoma): > 100 µM
- TGI (OVCAR-5 ovarian): 60.6 µM

Compound: O=S(=O)(N/N=C/c1c(Cl)cccc1Cl)c1ccccc1
- TGI (OVCAR-4 ovarian): > 100 µM
- TGI (M14 melanoma): > 100 µM
- TGI (CCRF-CEM leukemia): > 100 µM
- TGI (UACC-62 melanoma): > 100 µM
- TGI (HOP-18 NSCLC): > 100 µM
- TGI (LXFL 529 NSCLC): > 100 µM
- TGI (IGROV1 ovarian): > 100 µM
- TGI (DMS 273 small cell lung): > 100 µM
- TGI (MOLT-4 leukemia): > 100 µM
- TGI (SK-MEL-2 melanoma): > 100 µM
- TGI (SF-295 CNS): > 100 µM
- TGI (UO-31 renal): > 100 µM
- TGI (HL-60(TB) leukemia): 70.8 µM
- TGI (SR leukemia): > 100 µM
- TGI (RXF-631 renal): > 100 µM
- TGI (A498 renal): > 100 µM
- TGI (HOP-62 NSCLC): > 100 µM
- TGI (DLD-1 colon): > 100 µM
- TGI (OVCAR-3 ovarian): > 100 µM
- TGI (HCC-2998 colon): > 100 µM
- TGI (SNB-78 CNS): > 100 µM
- TGI (SK-OV-3 ovarian): > 100 µM
- TGI (SNB-75 CNS): > 100 µM
- TGI (RPMI-8226 leukemia): > 100 µM
- TGI (HCT-116 colon): > 100 µM
- TGI (SF-539 CNS): > 100 µM
- TGI (LOX IMVI melanoma): > 100 µM
- TGI (U251 CNS): > 100 µM
- TGI (K-562 leukemia): > 100 µM
- TGI (HCT-15 colon): > 100 µM
- TGI (SN12C renal): > 100 µM
- TGI (KM12 colon): > 100 µM
- TGI (SW-620 colon): > 100 µM
- TGI (COLO 205 colon): > 100 µM
- TGI (HT29 colon): > 100 µM
- TGI (NCI-H226 lung): > 100 µM
- TGI (M19-MEL melanoma): > 100 µM
- TGI (A549 NSCLC): > 100 µM
- TGI (MALME-3M melanoma): > 100 µM
- TGI (SK-MEL-5 melanoma): > 100 µM
- TGI (SK-MEL-28 melanoma): > 100 µM
- TGI (OVCAR-8 ovarian): > 100 µM
- TGI (NCI-H460 lung): > 100 µM
- TGI (EKVX NSCLC): > 100 µM
- TGI (NCI-H23 lung): > 100 µM
- TGI (RXF 393 renal): > 100 µM
- TGI (TK-10 renal): > 100 µM
- TGI (HOP-92 NSCLC): > 100 µM
- TGI (SF-268 CNS): > 100 µM
- TGI (XF 498 CNS): > 100 µM
- TGI (KM20L2 colon): > 100 µM
- TGI (DMS 114 small cell lung): > 100 µM
- TGI (UACC-257 melanoma): > 100 µM
- TGI (OVCAR-5 ovarian): > 100 µM
